In patent US11518981B2, “Methods of enhancing engraftment activity of hematopoietic stem cells” (CHILDREN'S HOSPITAL MEDICAL CENTER, priority 2017, dated 2022):

What was measured:
[1] = system: human MPB derived CD34^+ cells; test: human CD45^+ engraftment in bone marrow of NSG mice after primary transplant (1 T); type: in vivo; settings: 24 weeks post 1 T; 72-96 h LV and RV groups
Description: Freshly isolated CD34^+ cells were used, wherever possible, and especially for 0 h controls. In some experiments cryopreserved CD34^+ cells were thawed for 4 hrs in IMDM containing cytokines, then washed and used for experiments. […] Cells were kept in culture for a total of either 18-24 hours, 36-42 hours or 72-96 hours. For RV transduction, human CD34^+ cells were pre-stimulated for 2 days (42-48 hours) hours at a cell density of 3×10^5 cells/ml. Retronectin coated tissue culture flasks or plates were preloaded at room temperature with GALV pseudotyped RV twice for one hour each. The vector supernatant was removed and the cells were loaded into the RV loaded retronectin coated flasks. RV transduction was also performed twice 24 hours apart at an MOI ranging from 5 to 10. After total of 72-96 hours in culture, cells were harvested. LV and RV transductions were performed at 37° C. under 5% CO2 in ambient oxygen concentrations (20% 02). For some experiments, LV was added just like RV after 2 days of pre-stimulation. p38 MAPK inhibitors Birb 796 (600 nM), Vx-745 (1 μM), or LY 2228820 (500 nM) (all from Selleckchem) were supplemented to the culture media. […] Human engraftment was analyzed in bone marrow (BM), via BM aspirates performed at 6 and 12 weeks from left and right femurs. […]

[2] = system: CD34^+38^−90^+45RA^−49f^+ HSCs; test: phenotypic HSC population by flow cytometry; type: cell-based, human
Text: PE-Cyanine 7 or APC-EFLUOR® 780, APC- or PE-conjugated antibodies directed to human CD34 (BD Biosciences 560710 or 555824), CD38 (eBiosciences, San Diego, Calif. 47-0389-42), CD90 (BioLegend 328120), CD45RA (eBiosciences 17-0458-42), CD49f (BD Biosciences 555736), CD45 (BD 55485 or Biolegend 304026), CD33 (eBiosciences 25-0338-42), CD19 (BD Biosciences 557791), or CD3 (BD Biosciences 555340). Cells (˜5×10^5−1×10^6) were used to label with antibodies as per manufacturer instructions with the appropriate isotype controls. For phospho-flow, primary antibodies phospho-p38 (Thr180/Tyr182; 4092S), phospho-p44/42 MAPK (ERK ½) (Thr202/Tyr204; 4094S), and phospho-JNK (Thr183-Tyr185 PE conjugate; 5755S) (all from Cell Signaling) were used for staining overnight followed by wash and secondary antibody stain including Goat anti-Rabbit IgG (H+L) or Goat anti-Rabbit IgG (H+L) or Pacific Blue (P-10994) antibody. Apoptosis assay was performed using PE Annexin V Apoptosis Detection Kit (BD Biosciences 559763) according to the manufacturer's instructions. Total ROS and mitochondrial specific ROS were detected using 10 μM CM-H2DCFDA (ThermoFisher Scientific C6827) and 5 μM MITOSOX™ Red (Red Mitochondrial Superoxide Indicator) (ThermoFisher Scientific M36008) respectively, following manufacturer's instructions.

Cc1ccc(-n2nc(C(C)(C)C)cc2NC(=O)Nc2ccc(OCCN3CCOCC3)c3ccccc23)cc1 [p38i, 1-[5-tert-butyl-2-(4-methylphenyl)pyrazol-3-yl]-3-[4-(2-morpholin-4-ylethoxy)naphthalen-1-yl]urea]
human CD45^+ cell engraftment in the NSG BM [1]: improved
increased phenotypic HSC population ([2]; other than prolonged cultures): similar
phenotypic HSCs ([2]; prolonged cultures): higher
